# Calls of active or inactive are those of the source. The rule behind the calls is not given here.
# Columns and labels:
# [1] = system: HepG2; assay: Hepatoprotective activity against acetaminophen-induced cell damage in human HepG2 cells assessed as increase in cell survival at 10 uM incubated for 24 hrs by CCK-8 assay relative to control; assay type: functional; settings: read-out: Survival
# [2] = system: RAW264.7; assay: Antiinflammatory activity in LPS-induced mouse RAW264.7 cells assessed as reduction in IL-1beta mRNA expression incubated for 24 hrs by qPCR analysis; assay type: functional, cell-based; settings: dose 10-40 µM
# [3] = system: RAW264.7; assay: Antiinflammatory activity in LPS-induced mouse RAW264.7 cells assessed as reduction in IL-6 production at 10 to 40 uM incubated for 24 hrs by ELISA; assay type: functional, cell-based; settings: dose 10-40 µM
# [4] = system: RAW264.7; assay: Antiinflammatory activity in LPS-induced mouse RAW264.7 cells assessed as reduction in IL-6 mRNA expression incubated for 24 hrs by qPCR analysis; assay type: functional, cell-based; settings: dose 10-40 µM
# [5] = system: RAW264.7; assay: Antiinflammatory activity in LPS-induced mouse RAW264.7 cells assessed as reduction in IL-1beta production at 10 to 40 uM incubated for 24 hrs by ELISA; assay type: functional, cell-based; settings: dose 10-40 µM
# [6] = system: RAW264.7; assay: Antiinflammatory activity in LPS-induced mouse RAW264.7 cells assessed as inhibition of NO production at 10 to 40 uM incubated for 24 hrs by Griess reagent based assay; assay type: functional, cell-based; settings: dose 10-40 µM
Structure (SMILES),viability at 10 µM [1] [%],also measured
C[C@H]1[C@H](C)CC[C@]2(C)CC[C@]3(C)C(=CC[C@@H]4[C@@]5(C)CC[C@H](O)C(C)(C)[C@@H]5CC[C@]43C)[C@H]12,61,–
COC(=O)c1cc(OC)c2c(c1-c1c(CO)cc(OC)c3c1OCO3)OCO2 [BICYCLOL],60,–
CC1(C)CC[C@]2(CO)CC[C@]3(C)C(=CC[C@@H]4[C@@]5(C)CC[C@H](O)C(C)(C)[C@@H]5CC[C@]43C)[C@@H]2C1 [ERYTHRODIOL],61,Activity [2]: Dose-Dependent Effect; Activity [3]: Active; Activity [4]: Dose-Dependent Effect; Activity [5]: Active; Activity [6]: Active
C[C@H]1[C@H](C)CC[C@]2(CO)CC[C@]3(C)C(=CC[C@@H]4[C@@]5(C)CC[C@H](O)C(C)(C)[C@@H]5CC[C@]43C)[C@H]12 [UVAOL],61,–
CC1(C)CC[C@]2(C)CC[C@]3(C)C(=CC[C@@H]4[C@@]5(C)CC[C@H](O)C(C)(C)[C@@H]5CC[C@]43C)[C@@H]2C1 [beta-AMYRIN],61,–

# — ChEMBL document CHEMBL5385955, “Minor Hydroxylated Triterpenoids Produced in Engineered Yeast by the Enzymes OSC and CYP716s from the Plant Enkianthus chinensis and Their Anti-Inflammatory and Hepatoprotective Activities” (2024)
